Measured values: patent US4885277A, “Anticoagulant therapy” (Oklahoma Medical Research Foundation, priority 1987, dated 1989)
Where no end group is shown, it is not given here. [ ]: non-standard residue; d: D form. pGlu = O=C1CC[C@@H](C(=O)O)N1

Tested on: endothelial cellular receptors for Factor IX (cultured bovine aortic endothelial cells)
Assay: Competitive binding of [125I]-Factor IX to cultured bovine aortic endothelial cells
Settings: up to millimolar amounts of peptide
Experimental: The purified peptides were tested for their ability to block the binding of bovine Factor IX and IXa to cultured bovine aortic endothelial cells. Bovine Factor IX and IXa for these studies were prepared and radioiodinated (using Na^125 I and the solid state lactoperoxidase technique) using methods described by Stern, et al. (J. Biol. Chem. 260, pp. 6717-6722 [1985]). Bovine aortic endothelial cells were obtained from the aortae of newborn calves as described by Stern, et al. (Proc. Natl. Acad. Sci. U.S.A., 80, pp. 4119-4123 [1983]). These endothelial cells were grown to confluence (1.3×10^5 cells/cm^2) in culture dishes. Binding assays were carried out by incubating either ^125 I-Factor IX or ^125 I-Factor IXa with endothelial cell monolayers in the presence of varying concentrations of one of the peptides. The buffer used in these experiments was Minimal Essential Medium containing 0.5 mg/ml transferring, and the incubation time was 4-5 hours at 4° C. At the end of the incubation period, the cultures were washed to remove unbound material. Then, specifically bound [^125 I]-Factor IX or [^125 I]-Factor IXa was eluted during exposure to EDTA-containing buffer as described by Stern, et al. (Proc. Natl. Acad. Sci. U.S.A., 80, pp. 4119-4123 [1983].

## DRVYVHPSL [Angiotensin I, control peptide for specificity]
  inhibition of [125I]-Factor IX endothelial cell binding: no inhibition

## PCA-Gly-Val-Asn-Glu-Glu-Gly-Phe-Phe-Ser-Ala-Arg ([pGlu]GVNEEGFFSAR) [fibrinopeptide B, control peptide for specificity]
  inhibition of [125I]-Factor IX endothelial cell binding: no inhibition
